Data reported in patent publication US20090176817A1, “Method of Treatment of Diarrhea-Predominant Irritable Bowel Syndrome in a Subject” (priority 2005, published 2009).

Tested on: diarrhea-predominant IBS subjects
Experiment: Study S241.3.006: weekly diary questions on adequate relief
Assay type: in vivo, human
Details: for Number of months a subject was a responder: One month (Abdominal pain/discomfort) / Number of months a subject was a responder: One month (Abnormal bowel habits) / Number of months a subject was a responder: One month (IBS symptoms) / Number of months a subject was a responder: Three months (Abdominal pain/discomfort) / Number of months a subject was a responder: Three months (Abnormal bowel habits) / Number of months a subject was a responder: Three months (IBS symptoms) / Number of months a subject was a responder: Two months (Abdominal pain/discomfort) / Number of months a subject was a responder: Two months (Abnormal bowel habits) / Number of months a subject was a responder: Two months (IBS symptoms) / Number of months a subject was a responder: Zero months (Abdominal pain/discomfort) / Number of months a subject was a responder: Zero months (Abnormal bowel habits) / Number of months a subject was a responder: Zero months (IBS symptoms) / Overall responder rate, adequate relief of IBS symptoms / Overall responder rate, adequate relief of abdominal pain/discomfort / Overall responder rate, adequate relief of abnormal bowel habits: three-month treatment period; for Number of months a subject was a responder: One month (Abdominal pain/discomfort) / Number of months a subject was a responder: One month (Abnormal bowel habits) / Number of months a subject was a responder: One month (IBS symptoms) / Number of months a subject was a responder: Three months (Abdominal pain/discomfort) / Number of months a subject was a responder: Three months (Abnormal bowel habits) / Number of months a subject was a responder: Three months (IBS symptoms) / Number of months a subject was a responder: Two months (Abdominal pain/discomfort) / Number of months a subject was a responder: Two months (Abnormal bowel habits) / Number of months a subject was a responder: Two months (IBS symptoms) / Number of months a subject was a responder: Zero months (Abdominal pain/discomfort) / Number of months a subject was a responder: Zero months (Abnormal bowel habits) / Number of months a subject was a responder: Zero months (IBS symptoms): monthly LOCF
Method: The study was conducted in 129 study centers in the United States. At total of 2080 subjects consented to participate, and 711 subjects were randomized. A total of 692 subjects were analyzed for efficacy and 701 subjects were analyzed for safety. Diagnosis and main criteria for inclusion were IBS subjects satisfying the Rome I criteria (1992); the diarrhea predominant sub-population of the Rome II criteria; and a minimum abdominal pain/discomfort, stool frequency and consistency determined during the run-in period. Subjects were treated with cilansetron 2 mg tablets given orally TID or matching placebo tablets given orally TID for 12 weeks double-blind treatment.
The primary efficacy parameter was the number of months that a subject was a responder for IBS symptoms (abdominal pain, abdominal discomfort, abnormal bowel habits) over the 12-week treatment period. A responder for a month (monthly responder) was defined as a subject who answered the weekly question with “yes” at least twice for that month.
Studies S24 1.3.OO6, S24 1.3.0 1 1, and S24 1.3.009 used the following efficacy measurements: • The subjects answered the following three questions with “yes” or “no” using a phone diary at the end of each week: • a) During the last week, did you experience adequate relief of your IBS symptoms, such as abdominal pain, abdominal discomfort, abnormal bowel habits? • b) During the last week, did you experience adequate relief of your abdominal pain and/or discomfort? • c) During the last week, did you experience adequate relief of your abnormal bowel habits? • The subjects rated the following symptoms using the phone diary at the end of each day: • abdominal pain/discomfort (five-point scale); • stool consistency (seven-point Bristol Stool Scale); • stool frequency (number of bowel movements each day); • urgency (five-point scale); • straining (yes or no); • feeling of incomplete defecation (yes or no); • bloating or feeling of abdominal distension (five-point scale). • In Studies S241 A006 and S241.3.009, subjects completed the IBS-QOL Survey at Baseline (Day 1) and at the end of treatment. In Study S24 1.3.0 1 1, subjects completed the IBS-QOL Survey at Baseline (Day 1), at the end of the three-month treatment period, and at the end of rerandomized treatment.
In all three pivotal efficacy studies, the primary and main secondary efficacy parameters were based on the weekly diary questions on adequate relief and included the following: • 1. Number of months (one month equals four weeks) that a subject was a responder for the weekly diary questions on adequate relief. A responder for a month (monthly responder) was defined as a subject who answered the weekly question with “yes” at least twice for that month. For Studies S241.3.006 and S241.3.011, the primary efficacy parameter was the number of months that a subject was a responder for IBS symptoms during the 12-week treatment period. The two main secondary efficacy parameters were the number of months that a subject was a responder for abdominal pain/discomfort and abnormal bowel habits during the 12-week treatment period. For Study S241.3.009, the number of months that a subject was a responder for the weekly diary questions on adequate relief during Months 1 to 3 (the first 12 weeks) and Months 1 to 6 (24-week) was an additional key secondary efficacy parameter. • 2. Overall responder rate for the weekly diary questions on adequate relief. A responder was defined as a subject who answered the weekly question with “yes” for at least half of the answers available with a minimum of four weeks treatment duration. If a subject had less than four weeks treatment duration, the subject was considered a non-responder. The overall responder rate was the percentage of responders within a treatment group. For Study S241.3.009, the primary efficacy parameter was the overall responder rate for IBS symptoms during the 26-week treatment period. […]

[1] = Duration of IBS: ≦24 months, ITT, 2 mg TID
[2] = Female subjects, observed case, ITT, 2 mg TID
[3] = Male subjects, observed case, ITT, 2 mg TID

## Cc1nccn1C[C@H]1CCc2c(c3cccc4c3n2CCC4)C1=O [Cilansetron, (R)-(−)-4,5,6,8,9,10-hexahydro-10-[(2-methyl-1H-imidazol-1-yl)methyl]-11H-pyrido-[3,2,1-jk]-carbazol-11-one]
Duration of IBS: ≦24 months, 2 mg TID, observed case, ITT
  Number of subjects who were responders during the three-month treatment period: Adequate relief of abnormal bowel habits: 27 (53) n (%)
[1]
  Number of months a subject was a responder: One month (Abdominal pain/discomfort): 7 (14) n (%)
  Number of months a subject was a responder: One month (Abnormal bowel habits): 4 (8) n (%)
  Number of months a subject was a responder: One month (IBS symptoms): 5 (10) n (%)
  Number of months a subject was a responder: Three months (Abdominal pain/discomfort): 25 (49) n (%)
  Number of months a subject was a responder: Three months (Abnormal bowel habits): 22 (43) n (%)
  Number of months a subject was a responder: Three months (IBS symptoms): 19 (37) n (%)
  Number of months a subject was a responder: Two months (Abdominal pain/discomfort): 4 (8) n (%)
  Number of months a subject was a responder: Two months (Abnormal bowel habits): 7 (14) n (%)
  Number of months a subject was a responder: Two months (IBS symptoms): 8 (16) n (%)
  Number of months a subject was a responder: Zero months (Abdominal pain/discomfort): 15 (29) n (%)
  Number of months a subject was a responder: Zero months (Abnormal bowel habits): 18 (35) n (%)
  Number of months a subject was a responder: Zero months (IBS symptoms): 19 (37) n (%)
Female subjects, ITT, 2 mg TID
  Number of months a subject was a responder: One month (Abdominal pain/discomfort): 32 (13) n (%)
  Number of months a subject was a responder: One month (Abnormal bowel habits): 27 (11) n (%)
  Number of months a subject was a responder: One month (IBS symptoms): 36 (15) n (%)
  Number of months a subject was a responder: Three months (Abdominal pain/discomfort): 103 (42) n (%)
  Number of months a subject was a responder: Three months (Abnormal bowel habits): 104 (43) n (%)
  Number of months a subject was a responder: Three months (IBS symptoms): 94 (39) n (%)
  Number of months a subject was a responder: Two months (Abdominal pain/discomfort): 38 (16) n (%)
  Number of months a subject was a responder: Two months (Abnormal bowel habits): 37 (15) n (%)
  Number of months a subject was a responder: Two months (IBS symptoms): 38 (16) n (%)
  Number of months a subject was a responder: Zero months (Abdominal pain/discomfort): 70 (29) n (%)
  Number of months a subject was a responder: Zero months (Abnormal bowel habits): 75 (31) n (%)
  Number of months a subject was a responder: Zero months (IBS symptoms): 75 (31) n (%)
[2]
  Overall responder rate, adequate relief of IBS symptoms: 127 (52) n (%)
  Overall responder rate, adequate relief of abdominal pain/discomfort: 134 (55) n (%)
  Overall responder rate, adequate relief of abnormal bowel habits: 135 (56) n (%)
Male subjects, ITT, 2 mg TID
  Number of months a subject was a responder: One month (Abdominal pain/discomfort): 10 (10) n (%)
  Number of months a subject was a responder: One month (Abnormal bowel habits): 13 (13) n (%)
  Number of months a subject was a responder: One month (IBS symptoms): 9 (9) n (%)
  Number of months a subject was a responder: Three months (Abdominal pain/discomfort): 36 (36) n (%)
  Number of months a subject was a responder: Three months (Abnormal bowel habits): 25 (25) n (%)
  Number of months a subject was a responder: Three months (IBS symptoms): 25 (25) n (%)
  Number of months a subject was a responder: Two months (Abdominal pain/discomfort): 9 (9) n (%)
  Number of months a subject was a responder: Two months (Abnormal bowel habits): 15 (15) n (%)
  Number of months a subject was a responder: Two months (IBS symptoms): 15 (15) n (%)
  Number of months a subject was a responder: Zero months (Abdominal pain/discomfort): 46 (46) n (%)
  Number of months a subject was a responder: Zero months (Abnormal bowel habits): 48 (48) n (%)
  Number of months a subject was a responder: Zero months (IBS symptoms): 52 (51) n (%)
[3]
  Overall responder rate, adequate relief of IBS symptoms: 41 (41) n (%)
  Overall responder rate, adequate relief of abdominal pain/discomfort: 45 (45) n (%)
  Overall responder rate, adequate relief of abnormal bowel habits: 39 (39) n (%)
females
  Overall responder rate, IBS symptoms: 52%
  Overall responder rate, abdominal pain/discomfort: 55%
  Overall responder rate, abnormal bowel habits: 56%
males
  Overall responder rate, IBS symptoms: 41%
  Overall responder rate, abdominal pain/discomfort: 45%
  Overall responder rate, abnormal bowel habits: 39%
non-Caucasians
  Overall responder rate, abdominal pain/discomfort: 48%
